Assay results from the supplement of paper PMC10307832.

Compound: COc1cc(Nc2ncc3c(n2)-c2ccc(Cl)cc2C(c2c(F)cccc2OC)=NC3)ccc1C(=O)O [Alisertib] + Cc1cc(Nc2cc(N3CCN(C)CC3)nc(Sc3ccc(NC(=O)C4CC4)cc3)n2)n[nH]1 [Tozasertib] (partner 0.1 µM)
Assay: relative viability (nuclei count vs DMSO), 5 days (fraction); higher = more cells survive
Summary of the method: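 Nuclei were stained with Hoechst during a one-step fixation (final 0.05% Triton X-100, 1% formaldehyde, 1 ug/ml Hoechst) carried out 5 days after dosing, then counted on 4× images. The cells, lung cancer lines in 1536-well plates, had been dosed by pin tool the day after seeding with one drug alone or a fixed anchor-drug dose plus five library-drug doses (not always all listed) in √10 steps. Relative viability is the nuclei count in treated wells divided by that in vehicle wells, and each value is the median of duplicate plates.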

Cell Line | relative viability (first compound 0.005 µM) | relative viability (first compound 0.01581 µM) | relative viability (first compound 0.05 µM) | relative viability (first compound 0.1581 µM) | relative viability (first compound 0.5 µM)
201T | 0.899 | 0.681 | 0.579 | 0.407 | 0.354
A-427 | 0.211 | 0.166 | 0.174 | 0.186 | 0.135
ABC-1 | 0.178 | 0.233 | 0.256 | 0.203 | 0.196
BEN | 0.531 | 0.457 | 0.375 | 0.456 | 0.4
CAL-12T | 0.333 | 0.28 | 0.202 | 0.199 | 0.178
COR-L23 | 0.439 | 0.213 | 0.119 | 0.124 | 0.114
COR-L 105 | 0.31 | 0.346 | 0.299 | 0.352 | 0.276
ChaGo-K-1 | 0.228 | 0.213 | 0.194 | 0.207 | 0.198
EKVX | 0.379 | 0.305 | 0.205 | 0.141 | 0.151
EMC-BAC-2 | 0.243 | 0.283 | 0.214 | 0.224 | 0.173
EPLC-272H | 0.238 | 0.176 | 0.144 | 0.192 | 0.16
H3255 | 0.737 | 0.503 | 0.296 | 0.137 | 0.227
HARA | 0.103 | 0.0888 | 0.0929 | 0.104 | 0.0887
HCC-15 | 0.352 | 0.154 | 0.163 | 0.144 | 0.0961
HCC-44 | 0.929 | 0.59 | 0.296 | 0.349 | 0.196
HCC-78 | 0.446 | 0.273 | 0.281 | 0.245 | 0.211
HCC-366 | 0.125 | 0.0689 | 0.0539 | 0.0439 | 0.0387
HCC-827 | 0.378 | 0.31 | 0.258 | 0.273 | 0.278
HOP-62 | 0.339 | 0.275 | 0.204 | 0.24 | 0.203
LC-2-ad | 0.441 | 0.367 | 0.366 | 0.338 | 0.323
LCLC-97TM1 | 0.203 | 0.185 | 0.166 | 0.181 | 0.149
LCLC-103H | 0.432 | 0.42 | 0.223 | 0.247 | 0.26
LK-2 | 0.167 | 0.184 | 0.164 | 0.197 | 0.185
LOU-NH91 | 0.656 | 0.652 | 0.47 | 0.364 | 0.337

Cell Line | relative viability (first compound 0.005 µM) | relative viability (first compound 0.01581 µM) | relative viability (first compound 0.05 µM) | relative viability (first compound 0.1581 µM) | relative viability (first compound 0.5 µM)
LU99A | 0.276 | 0.272 | 0.219 | 0.216 | 0.203
LXF-289 | 0.169 | 0.14 | 0.128 | 0.141 | 0.0869
NCI-H23 | 0.27 | 0.249 | 0.165 | 0.208 | 0.15
NCI-H322M | 0.394 | 0.491 | 0.506 | 0.453 | 0.509
NCI-H358 | 0.093 | 0.121 | 0.0917 | 0.0959 | 0.079
NCI-H441 | 0.478 | 0.366 | 0.253 | 0.286 | 0.227
NCI-H460 | 0.477 | 0.428 | 0.0521 | 0.0419 | 0.0268
NCI-H520 | 0.372 | 0.418 | 0.376 | 0.409 | 0.357
NCI-H522 | 0.543 | 0.565 | 0.489 | 0.517 | 0.439
NCI-H596 | 0.825 | 0.878 | 0.779 | 0.592 | 0.314
NCI-H647 | 0.345 | 0.261 | 0.125 | 0.152 | 0.101
NCI-H650 | 0.653 | 0.481 | 0.253 | 0.185 | 0.165
NCI-H661 | 0.342 | 0.377 | 0.386 | 0.406 | 0.39
NCI-H727 | 0.411 | 0.598 | 0.486 | 0.494 | 0.404
NCI-H838 | 0.272 | 0.262 | 0.231 | 0.195 | 0.201
NCI-H1355 | 0.53 | 0.462 | 0.297 | 0.192 | 0.217
NCI-H1395 | 0.725 | 0.708 | 0.488 | 0.478 | 0.391
NCI-H1437 | 0.38 | 0.372 | 0.297 | 0.269 | 0.195
NCI-H1648 | 0.637 | 0.272 | 0.218 | 0.303 | 0.205
NCI-H1650 | 0.46 | 0.394 | 0.2 | 0.246 | 0.202
NCI-H1651 | 0.492 | 0.617 | 0.273 | 0.269 | 0.205
NCI-H1666 | 0.625 | 0.412 | 0.365 | 0.391 | 0.355
NCI-H1734 | 0.262 | 0.231 | 0.22 | 0.195 | 0.188
NCI-H1755 | 0.6 | 0.569 | 0.422 | 0.386 | 0.311

Cell Line | relative viability (first compound 0.005 µM) | relative viability (first compound 0.01581 µM) | relative viability (first compound 0.05 µM) | relative viability (first compound 0.1581 µM) | relative viability (first compound 0.5 µM)
NCI-H1793 | 0.45 | 0.231 | 0.269 | 0.176 | 0.185
NCI-H1915 | 0.404 | 0.272 | 0.241 | 0.193 | 0.179
NCI-H1944 | 0.242 | 0.239 | 0.258 | 0.195 | 0.187
NCI-H1975 | 0.695 | 0.65 | 0.336 | 0.212 | 0.124
NCI-H1993 | 0.572 | 0.542 | 0.536 | 0.524 | 0.512
NCI-H2009 | 0.732 | 0.663 | 0.427 | 0.336 | 0.22
NCI-H2023 | 0.419 | 0.368 | 0.263 | 0.215 | 0.0951
NCI-H2085 | 0.723 | 0.669 | 0.526 | 0.476 | 0.394
NCI-H2087 | 0.204 | 0.249 | 0.126 | 0.158 | 0.144
NCI-H2126 | 0.798 | 0.637 | 0.405 | 0.293 | 0.288
NCI-H2170 | 0.658 | 0.674 | 0.321 | 0.261 | 0.161
NCI-H2228 | 0.322 | 0.19 | 0.147 | 0.132 | 0.109
NCI-H2342 | 0.623 | 0.424 | 0.335 | 0.377 | 0.351
NCI-H2347 | 0.517 | 0.549 | 0.415 | 0.401 | 0.273
NCI-H2405 | 0.772 | 0.618 | 0.308 | 0.293 | 0.258
NCI-H3122 | 0.384 | 0.315 | 0.235 | 0.27 | 0.191
PC-3 [JPC-3] | 0.893 | 0.814 | 0.548 | 0.551 | 0.387
PC-14 | 0.566 | 0.492 | 0.26 | 0.0568 | 0.06
RERF-LC-KJ | 0.511 | 0.386 | 0.253 | 0.27 | 0.218
SK-LU-1 | 0.303 | 0.286 | 0.219 | 0.224 | 0.205
SK-MES-1 | 0.819 | 0.705 | 0.429 | 0.207 | 0.135
SW 1573 | 0.135 | 0.153 | 0.132 | 0.147 | 0.158
UMC-11 | 0.201 | 0.23 | 0.201 | 0.213 | 0.219
